Data on one molecule can be found in paper PMC11509018, “Evaluation of the Role of Tanshinone I in an In Vitro System of Charcot-Marie-Tooth Disease Type 2N” (International Journal of Molecular Sciences, 2024).

This experiment deals with T1, AlaRS G102R binding to Nrp1 (Homo sapiens, UniProt P49588, G102R).
T1 construct: expressed in transfected cells
T1 sequence (P49588 1-968 G102R): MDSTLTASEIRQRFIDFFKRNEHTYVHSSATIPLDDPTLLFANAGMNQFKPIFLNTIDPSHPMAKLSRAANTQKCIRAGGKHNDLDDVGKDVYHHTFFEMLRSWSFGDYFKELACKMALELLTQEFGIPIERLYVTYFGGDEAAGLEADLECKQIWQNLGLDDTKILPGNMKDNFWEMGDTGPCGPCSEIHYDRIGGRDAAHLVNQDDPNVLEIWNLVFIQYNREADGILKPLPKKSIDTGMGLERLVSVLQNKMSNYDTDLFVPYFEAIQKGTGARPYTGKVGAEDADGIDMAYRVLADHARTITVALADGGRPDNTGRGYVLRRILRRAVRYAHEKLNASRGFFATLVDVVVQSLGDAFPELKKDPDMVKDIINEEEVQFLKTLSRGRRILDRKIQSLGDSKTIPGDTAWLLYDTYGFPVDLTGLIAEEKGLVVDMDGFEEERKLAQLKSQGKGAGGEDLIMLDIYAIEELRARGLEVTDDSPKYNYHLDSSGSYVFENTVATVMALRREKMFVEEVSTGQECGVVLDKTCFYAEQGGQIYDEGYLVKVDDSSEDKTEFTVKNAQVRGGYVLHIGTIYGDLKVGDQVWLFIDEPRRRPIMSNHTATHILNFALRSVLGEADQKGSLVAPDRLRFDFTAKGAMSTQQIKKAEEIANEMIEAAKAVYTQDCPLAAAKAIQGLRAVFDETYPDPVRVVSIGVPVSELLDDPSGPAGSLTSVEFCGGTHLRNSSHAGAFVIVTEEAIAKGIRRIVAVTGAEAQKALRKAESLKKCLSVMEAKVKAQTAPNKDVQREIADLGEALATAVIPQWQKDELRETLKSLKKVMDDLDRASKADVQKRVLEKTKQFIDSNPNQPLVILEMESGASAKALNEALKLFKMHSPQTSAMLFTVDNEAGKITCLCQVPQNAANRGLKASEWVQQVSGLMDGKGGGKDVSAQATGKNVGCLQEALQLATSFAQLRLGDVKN
Briefly: Co-IP of HA-AlaRS mutant with Nrp1 in transfected cells. It counts as cell-based. The note with it: 20 µM Tanshinone I for 24 h, ImageJ, average of three repeats.

`Cc1coc2c1C(=O)C(=O)c1c-2ccc2c(C)cccc12` [Tanshinone I]: the “Mean density band (G102R), relative quantification of AlaRS mutant immunoprecipitated” value was determined as 0.53.
